Reference: patent US10039759B2, “Quinolines as FGFR kinase modulators” (priority 2011, dated 2018)
Read-outs that look alike come from different tables or passages of the source.

Columns and labels:
[1] = biological target: FGFR3 (h) (Homo sapiens, UniProt P22607); assay: FGFR3 (enzymatic assay), TR-FRET; type: biochemical; conditions: 60 min, pIC50 = -log IC50 (M), average if tested multiple times
[2] = biological target: FGFR4 (h) (Homo sapiens, UniProt P22455); assay: FGFR4 (enzymatic assay), TR-FRET; type: biochemical; conditions: FGFR 4 pIC50, 5 μM ATP, 60 min; pIC50 = -log IC50 (M); average if tested multiple times
FGFR4 (h), sequence (P22455 22-802): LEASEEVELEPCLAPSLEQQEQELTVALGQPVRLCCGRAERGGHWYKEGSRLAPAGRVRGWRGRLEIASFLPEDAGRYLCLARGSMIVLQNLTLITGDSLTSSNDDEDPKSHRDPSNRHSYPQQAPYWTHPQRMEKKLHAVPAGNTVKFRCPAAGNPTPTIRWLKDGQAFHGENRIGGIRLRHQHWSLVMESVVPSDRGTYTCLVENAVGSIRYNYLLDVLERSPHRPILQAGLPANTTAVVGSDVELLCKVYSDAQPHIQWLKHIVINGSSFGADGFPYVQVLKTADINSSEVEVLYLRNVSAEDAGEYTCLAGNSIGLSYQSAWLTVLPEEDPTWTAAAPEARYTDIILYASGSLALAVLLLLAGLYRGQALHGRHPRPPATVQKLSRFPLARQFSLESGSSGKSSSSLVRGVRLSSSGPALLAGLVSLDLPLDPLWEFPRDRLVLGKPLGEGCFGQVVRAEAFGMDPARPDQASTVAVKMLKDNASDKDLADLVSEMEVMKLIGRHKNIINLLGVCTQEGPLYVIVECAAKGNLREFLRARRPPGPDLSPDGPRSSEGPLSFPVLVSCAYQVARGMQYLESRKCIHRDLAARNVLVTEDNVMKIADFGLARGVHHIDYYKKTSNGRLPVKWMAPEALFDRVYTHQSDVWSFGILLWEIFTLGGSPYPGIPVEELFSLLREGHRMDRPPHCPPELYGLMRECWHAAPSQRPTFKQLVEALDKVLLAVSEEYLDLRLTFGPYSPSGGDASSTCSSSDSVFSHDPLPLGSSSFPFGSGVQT

[3] = biological target: KDR (h) (Homo sapiens, UniProt P35968); assay: KDR (VEGFR2) (enzymatic assay), TR-FRET; type: biochemical; conditions: 120 min, pIC50 = -log IC50 (M), average if tested multiple times
KDR (h), sequence (P35968 20-1356): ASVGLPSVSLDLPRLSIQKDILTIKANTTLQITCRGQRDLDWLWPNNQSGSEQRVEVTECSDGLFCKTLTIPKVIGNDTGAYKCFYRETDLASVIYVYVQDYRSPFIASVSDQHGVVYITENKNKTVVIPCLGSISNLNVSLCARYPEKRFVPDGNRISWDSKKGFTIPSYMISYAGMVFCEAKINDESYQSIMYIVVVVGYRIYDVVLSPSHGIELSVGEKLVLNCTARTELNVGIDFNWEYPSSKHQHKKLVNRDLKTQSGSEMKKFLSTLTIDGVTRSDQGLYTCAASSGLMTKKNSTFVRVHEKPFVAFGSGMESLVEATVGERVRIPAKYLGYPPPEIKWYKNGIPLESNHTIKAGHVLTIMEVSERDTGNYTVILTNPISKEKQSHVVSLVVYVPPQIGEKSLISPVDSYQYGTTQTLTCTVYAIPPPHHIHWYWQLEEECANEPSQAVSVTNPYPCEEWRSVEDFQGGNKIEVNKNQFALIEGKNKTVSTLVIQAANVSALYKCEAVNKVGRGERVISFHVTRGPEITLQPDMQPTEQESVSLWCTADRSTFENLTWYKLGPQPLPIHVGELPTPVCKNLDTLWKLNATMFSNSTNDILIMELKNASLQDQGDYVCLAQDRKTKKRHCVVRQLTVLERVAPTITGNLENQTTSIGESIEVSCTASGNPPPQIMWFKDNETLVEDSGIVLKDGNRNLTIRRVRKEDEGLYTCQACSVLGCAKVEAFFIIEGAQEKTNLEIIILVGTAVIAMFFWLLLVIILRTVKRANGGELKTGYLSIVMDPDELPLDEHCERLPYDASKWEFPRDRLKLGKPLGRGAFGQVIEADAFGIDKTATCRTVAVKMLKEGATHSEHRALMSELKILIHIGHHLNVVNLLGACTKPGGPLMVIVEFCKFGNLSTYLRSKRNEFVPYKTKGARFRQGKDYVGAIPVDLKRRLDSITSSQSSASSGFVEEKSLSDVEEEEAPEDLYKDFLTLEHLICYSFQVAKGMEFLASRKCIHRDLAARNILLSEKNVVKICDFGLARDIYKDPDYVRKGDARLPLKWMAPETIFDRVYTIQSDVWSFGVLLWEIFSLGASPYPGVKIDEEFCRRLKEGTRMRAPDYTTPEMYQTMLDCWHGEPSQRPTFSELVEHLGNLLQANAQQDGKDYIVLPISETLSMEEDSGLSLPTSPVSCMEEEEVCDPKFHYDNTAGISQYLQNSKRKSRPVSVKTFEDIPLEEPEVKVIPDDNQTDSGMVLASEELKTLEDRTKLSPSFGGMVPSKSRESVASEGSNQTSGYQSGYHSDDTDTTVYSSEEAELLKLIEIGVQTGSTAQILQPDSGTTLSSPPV
Summary of the method: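 Recombinant human KDR (150 ng/ml) phosphorylated 500 nM Btn-Flt3 with 3 μM ATP in HEPES pH 7.5/MnCl2 buffer, 1% DMSO, 120 min at room temperature; EDTA stop with Eu-anti-P-Tyr/SA-XL665 detection, TR-FRET read. IC50 and pIC50 derived from compound concentrations spanning 10 μM to 0.1 nM.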

[4] = biological target: T1, Ba/F3-KDR-transfected cells (Homo sapiens, UniProt P35968, cells depend on it, form not given); assay: Ba/F3-KDR (minus IL3 or plus IL3) cellular proliferation assay, Alamar Blue; type: cell-based; conditions: minus IL3; 24 hours, Alamar Blue
T1 construct: BAF3-KDR (MIN IL3 Alamar Blue pIC50); other: minus IL3; 24 hours, Alamar Blue
T1 sequence (P35968 whole entry, change not shown): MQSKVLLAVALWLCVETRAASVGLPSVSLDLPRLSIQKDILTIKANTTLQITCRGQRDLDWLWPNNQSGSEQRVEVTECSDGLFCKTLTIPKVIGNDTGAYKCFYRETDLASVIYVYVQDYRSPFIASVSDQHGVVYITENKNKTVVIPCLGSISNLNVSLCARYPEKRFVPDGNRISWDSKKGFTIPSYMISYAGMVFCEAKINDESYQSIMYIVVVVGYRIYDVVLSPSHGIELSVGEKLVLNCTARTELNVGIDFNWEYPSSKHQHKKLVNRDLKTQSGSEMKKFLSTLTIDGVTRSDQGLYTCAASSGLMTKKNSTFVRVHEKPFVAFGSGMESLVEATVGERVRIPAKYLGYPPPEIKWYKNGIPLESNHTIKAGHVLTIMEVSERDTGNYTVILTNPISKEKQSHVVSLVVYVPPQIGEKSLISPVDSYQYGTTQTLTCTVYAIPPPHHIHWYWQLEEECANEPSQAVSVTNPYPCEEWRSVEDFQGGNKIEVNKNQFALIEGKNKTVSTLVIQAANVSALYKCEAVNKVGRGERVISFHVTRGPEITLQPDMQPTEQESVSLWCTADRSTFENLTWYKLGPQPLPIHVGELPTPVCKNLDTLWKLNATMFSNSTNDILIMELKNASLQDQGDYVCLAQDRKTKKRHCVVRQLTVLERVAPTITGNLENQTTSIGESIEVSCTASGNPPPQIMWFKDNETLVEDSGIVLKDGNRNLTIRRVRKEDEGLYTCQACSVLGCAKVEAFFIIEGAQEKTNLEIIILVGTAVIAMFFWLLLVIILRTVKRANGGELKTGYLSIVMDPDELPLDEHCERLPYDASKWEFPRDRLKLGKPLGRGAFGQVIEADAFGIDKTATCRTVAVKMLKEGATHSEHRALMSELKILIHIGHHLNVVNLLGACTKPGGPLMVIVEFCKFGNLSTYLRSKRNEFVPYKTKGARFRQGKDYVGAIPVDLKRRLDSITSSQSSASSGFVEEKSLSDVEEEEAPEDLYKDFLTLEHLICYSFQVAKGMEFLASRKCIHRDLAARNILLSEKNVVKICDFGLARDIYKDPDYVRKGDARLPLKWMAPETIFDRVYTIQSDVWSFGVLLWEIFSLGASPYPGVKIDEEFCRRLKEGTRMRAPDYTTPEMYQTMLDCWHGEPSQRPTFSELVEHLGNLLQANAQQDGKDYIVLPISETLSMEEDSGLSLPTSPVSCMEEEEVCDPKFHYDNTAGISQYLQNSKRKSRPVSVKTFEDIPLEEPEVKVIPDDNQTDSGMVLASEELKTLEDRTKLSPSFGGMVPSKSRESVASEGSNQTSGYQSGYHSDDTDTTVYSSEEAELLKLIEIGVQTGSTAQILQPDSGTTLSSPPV
Summary of the method: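 Ba/F3-KDR cells, 20000 per well, exposed to compounds (10 μM to 0.1 nM) for 24 h at 37°C in RPMI/10% FBS, then Alamar Blue for 4 h; fluorescence ex 540/em 590 nm gives IC50 and pIC50. Counterscreen run with 10 ng/ml murine IL3.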

[5] = biological target: T2, Ba/F3-Flt3-transfected cells (Homo sapiens, UniProt P36888, cells depend on it, form not given); assay: Ba/F3-Flt3 (minus IL3 or plus IL3) cellular proliferation assay, Alamar Blue; type: cell-based; conditions: minus IL3, 24 hours
T2 construct: BAF3-FLT3 (MIN IL3 Alamar Blue pIC50); other: minus IL3; 24 hours, Alamar Blue
T2 sequence (P36888 1-993): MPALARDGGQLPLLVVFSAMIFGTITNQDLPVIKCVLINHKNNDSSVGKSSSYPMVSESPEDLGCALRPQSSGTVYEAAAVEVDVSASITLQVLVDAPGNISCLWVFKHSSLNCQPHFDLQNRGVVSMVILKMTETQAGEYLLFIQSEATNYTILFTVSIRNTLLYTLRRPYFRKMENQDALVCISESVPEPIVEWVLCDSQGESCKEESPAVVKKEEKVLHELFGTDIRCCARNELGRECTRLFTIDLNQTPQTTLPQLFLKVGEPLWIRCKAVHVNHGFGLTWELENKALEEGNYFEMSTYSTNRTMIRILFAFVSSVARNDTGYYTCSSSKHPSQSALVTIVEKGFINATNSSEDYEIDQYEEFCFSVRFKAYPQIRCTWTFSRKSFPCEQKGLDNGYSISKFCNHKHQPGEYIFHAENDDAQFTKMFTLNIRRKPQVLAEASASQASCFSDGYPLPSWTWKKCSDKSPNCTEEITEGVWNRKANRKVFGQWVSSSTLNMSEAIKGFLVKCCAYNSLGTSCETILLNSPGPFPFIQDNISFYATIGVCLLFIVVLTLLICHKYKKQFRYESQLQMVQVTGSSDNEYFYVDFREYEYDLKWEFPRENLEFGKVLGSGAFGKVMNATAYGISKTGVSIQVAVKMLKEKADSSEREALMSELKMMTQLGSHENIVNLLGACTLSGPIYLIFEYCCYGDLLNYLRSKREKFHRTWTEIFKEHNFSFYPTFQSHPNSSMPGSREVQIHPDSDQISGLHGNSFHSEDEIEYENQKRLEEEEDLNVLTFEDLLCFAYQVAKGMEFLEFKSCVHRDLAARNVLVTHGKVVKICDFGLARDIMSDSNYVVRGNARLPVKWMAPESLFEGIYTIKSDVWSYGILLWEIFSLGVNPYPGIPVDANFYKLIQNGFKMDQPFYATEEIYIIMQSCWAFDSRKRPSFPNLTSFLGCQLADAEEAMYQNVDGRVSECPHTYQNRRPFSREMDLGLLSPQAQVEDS
Description: Ba/F3-Flt3 (Minus IL3 or Plus IL3) (Cellular Proliferation Assay)
In a 384 well plate, 100 nl of compound dilution in DMSO was sprayed before adding 50 μl cell culture medium (phenol red free RPMI-1640, 10% FBS, 2 mM L-Glutamine and 50 μg/ml Gentamycin) containing 20000 cells per well of Ba/F3-Flt3-transfected cells. Cells were put in an incubator at 37° C. and 5% CO2. After 24 hours, 10 μl of Alamar Blue solution (0.5 mM K3Fe(CN)6, 0.5 mM K4Fe(CN)6, 0.15 mM Resazurin and 100 mM Phosphate Buffer) was added to the wells, incubated for 4 hours at 37° C. and 5% CO2 before RFU's (Relative Fluorescence Units) (ex. 540 nm., em. 590 nm.) were measured in a fluorescence plate reader.
In this assay, the inhibitory effect of different compound concentrations (range 10 μM to 0.1 nM) was determined and used to calculate an IC50 (M) and pIC50 (−log IC50) value. As a counterscreen the same experiment was performed in the presence of 10 ng/ml murine IL3.

[6] = 25 μM ATP, read-out: hFGFR 3 pIC50 (converted)
[7] = 3 μM ATP, read-out: VEGFR KDR pIC50 (converted)

FGFR3 (h), sequence (P22607 23-806): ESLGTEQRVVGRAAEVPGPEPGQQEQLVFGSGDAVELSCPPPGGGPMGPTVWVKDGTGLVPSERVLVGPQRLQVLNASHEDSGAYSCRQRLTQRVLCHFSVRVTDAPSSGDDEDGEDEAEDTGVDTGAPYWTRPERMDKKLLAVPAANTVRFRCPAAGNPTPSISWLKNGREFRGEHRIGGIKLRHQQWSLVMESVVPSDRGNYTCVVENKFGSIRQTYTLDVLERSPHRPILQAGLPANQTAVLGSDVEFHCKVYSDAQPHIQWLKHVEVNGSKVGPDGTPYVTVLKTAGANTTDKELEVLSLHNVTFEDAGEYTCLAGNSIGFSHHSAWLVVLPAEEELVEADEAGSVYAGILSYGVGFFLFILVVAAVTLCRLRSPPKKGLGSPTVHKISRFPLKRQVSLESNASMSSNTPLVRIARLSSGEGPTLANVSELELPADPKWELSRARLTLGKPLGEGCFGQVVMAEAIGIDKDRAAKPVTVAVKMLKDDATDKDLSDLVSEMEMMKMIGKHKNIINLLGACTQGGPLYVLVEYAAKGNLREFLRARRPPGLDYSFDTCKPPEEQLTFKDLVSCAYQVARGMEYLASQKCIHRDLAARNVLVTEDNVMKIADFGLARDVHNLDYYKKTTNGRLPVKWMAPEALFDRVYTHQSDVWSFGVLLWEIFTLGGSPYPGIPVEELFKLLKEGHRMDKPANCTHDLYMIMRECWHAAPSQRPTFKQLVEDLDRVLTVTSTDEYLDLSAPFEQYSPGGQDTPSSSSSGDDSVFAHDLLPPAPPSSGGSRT

COc1cc(OC)cc(N(CCCN2CCCC2=O)c2ccc3ncc(-c4cnn(C)c4)cc3c2)c1 [Compound 10]
IC50 [1, 6]: 1.55e-08 M | IC50 [2]: 8.32e-08 M | IC50 ([3]; VEGFR KDR pIC50, 3 μM ATP): 8.13e-08 M | BAF3-KDR (MIN IL3 Alamar Blue pIC50) [4]: 5.11 | BAF3-FLT3 (MIN IL3 Alamar Blue pIC50) [5]: <5

C#CCN(c1cc(OC)cc(OC)c1)c1ccc2ncc(-c3cnn(C)c3)cc2c1 [Compound 6]
IC50 [1, 6]: 1.35e-08 M | IC50 [2]: 1.51e-07 M | IC50 [3, 7]: 4.27e-07 M | BAF3-KDR (MIN IL3 Alamar Blue pIC50) [4]: 5.07 | BAF3-FLT3 (MIN IL3 Alamar Blue pIC50) [5]: 5.2

COc1cc(Nc2ccc3ncc(-c4cnn(C5CCCCO5)c4)cc3c2)cc(OC)c1 (centres unmarked) [Int. 8]
IC50 [1, 6]: 3.72e-08 M | IC50 [2]: 4.9e-07 M | IC50 [3, 7]: 3.16e-07 M | BAF3-KDR (MIN IL3 Alamar Blue pIC50) [4]: <5 | BAF3-FLT3 (MIN IL3 Alamar Blue pIC50) [5]: <5

COc1cc(OC)cc(N(CC#Cc2nccc(OC)n2)c2ccc3ncc(-c4cnn(C)c4)cc3c2)c1 [Compound 16]
IC50 [1, 6]: 1.35e-08 M | IC50 [2]: 3.72e-08 M | IC50 [3, 7]: 8.91e-07 M | BAF3-KDR (MIN IL3 Alamar Blue pIC50) [4]: <5 | BAF3-FLT3 (MIN IL3 Alamar Blue pIC50) [5]: 5.19

COc1cc(OC)cc(N(CCCO)c2ccc3ncc(-c4cnn(C)c4)cc3c2)c1 [Compound 4]
IC50 [1, 6]: 5.89e-09 M | IC50 [2]: 3.09e-08 M | IC50 [3, 7]: 1.38e-07 M | BAF3-KDR (MIN IL3 Alamar Blue pIC50) [4]: 5.45 | BAF3-FLT3 (MIN IL3 Alamar Blue pIC50) [5]: 5.35

COc1cc(OC)cc(N(Cc2nccn2S(=O)(=O)N(C)C)c2ccc3ncc(-c4cnn(C)c4)cc3c2)c1 [Compound 9]
IC50 [1, 6]: 1.1e-08 M | IC50 [2]: 1.45e-07 M | IC50 [3, 7]: 1.66e-07 M | BAF3-KDR (MIN IL3 Alamar Blue pIC50) [4]: <5 | BAF3-FLT3 (MIN IL3 Alamar Blue pIC50) [5]: <5

COc1cc(OC)cc(N(CCCN)c2ccc3ncc(-c4cnn(C)c4)cc3c2)c1 [Compound 11]
IC50 [1, 6]: 3.39e-09 M | IC50 [2]: 2e-08 M | IC50 [3, 7]: 4.47e-08 M | BAF3-KDR (MIN IL3 Alamar Blue pIC50) [4]: 5.42 | BAF3-FLT3 (MIN IL3 Alamar Blue pIC50) [5]: <5

COc1cc(OC)cc(N(CC2CCN(c3nccc(OC)n3)C2)c2ccc3ncc(-c4cnn(C)c4)cc3c2)c1 (centres unmarked) [Compound 7]
IC50 [1, 6]: 9.12e-07 M | IC50 [2]: > 1e-06 M | IC50 [3, 7]: > 1e-06 M | BAF3-KDR (MIN IL3 Alamar Blue pIC50) [4]: <5 | BAF3-FLT3 (MIN IL3 Alamar Blue pIC50) [5]: <5

COc1cc(OC)cc(N(CCNC(C)C)c2ccc3ncc(-c4cn[nH]c4)cc3c2)c1 [Compound 21]
IC50 [1, 6]: 3.39e-09 M | IC50 [2]: 5.37e-09 M | IC50 [3, 7]: 1.02e-07 M | BAF3-KDR (MIN IL3 Alamar Blue pIC50) [4]: 5.49 | BAF3-FLT3 (MIN IL3 Alamar Blue pIC50) [5]: 5.09

COc1cc(OC)cc(N(CC#Cc2ncccc2OC)c2ccc3ncc(-c4cnn(C)c4)cc3c2)c1 [Compound 17]
IC50 [1, 6]: 5.89e-08 M | IC50 [2]: 2.75e-07 M | IC50 [3, 7]: > 1e-06 M | BAF3-KDR (MIN IL3 Alamar Blue pIC50) [4]: <5 | BAF3-FLT3 (MIN IL3 Alamar Blue pIC50) [5]: <5

COc1cc(OC)cc(C(O)c2ccc3ncc(-c4cnn(C)c4)cc3c2)c1 (centres unmarked) [Compound 12]
IC50 [1, 6]: 2.34e-07 M | IC50 [2]: > 9.33e-07 M | IC50 [3, 7]: > 1e-06 M | BAF3-KDR (MIN IL3 Alamar Blue pIC50) [4]: <5 | BAF3-FLT3 (MIN IL3 Alamar Blue pIC50) [5]: <5.47

COc1cc(OC)cc(N(CC(O)C(F)(F)F)c2ccc3ncc(-c4cnn(C)c4)cc3c2)c1 (single isomer, unassigned) [Compound 24]
IC50 [1, 6]: ~1.1e-09 M | IC50 [2]: 7.94e-09 M | IC50 [3, 7]: 2.88e-07 M | BAF3-KDR (MIN IL3 Alamar Blue pIC50) [4]: 5.05 | BAF3-FLT3 (MIN IL3 Alamar Blue pIC50) [5]: <5

COc1cc(OC)cc(N(Cc2ncccn2)c2ccc3ncc(-c4cnn(C)c4)cc3c2)c1 [Compound 8]
IC50 [1, 6]: 3.24e-08 M | IC50 [2]: 1.17e-07 M | IC50 [3, 7]: 8.13e-07 M | BAF3-KDR (MIN IL3 Alamar Blue pIC50) [4]: <5 | BAF3-FLT3 (MIN IL3 Alamar Blue pIC50) [5]: <5.47

COc1cc(OC)cc(N(CCNC(C)C)c2ccc3ncc(-c4cnn(C)c4)cc3c2)c1 [Compound 1]
IC50 [1, 6]: 7.94e-09 M | IC50 [2]: 1.38e-08 M | IC50 [3, 7]: 7.41e-08 M | BAF3-KDR (MIN IL3 Alamar Blue pIC50) [4]: 5.635 | BAF3-FLT3 (MIN IL3 Alamar Blue pIC50) [5]: ~5

COc1cc(OC)c(F)c(N(CCNC(C)C)c2ccc3ncc(-c4cnn(C)c4)cc3c2)c1 [Compound 2]
IC50 ([1]; hFGFR 3 pIC50, 25 μM ATP): 3.89e-09 M | IC50 [2]: 3.98e-09 M | IC50 [3, 7]: 2.57e-08 M | BAF3-KDR (MIN IL3 Alamar Blue pIC50) [4]: 6.18 | BAF3-FLT3 (MIN IL3 Alamar Blue pIC50) [5]: 5.34

COc1cc(OC)cc(N(CCNC(C)C)c2ccc3ncc(-c4cnn(C5CCCCO5)c4)cc3c2)c1 (centres unmarked) [Compound 22]
IC50 [1, 6]: 2.4e-09 M | IC50 [2]: 4.37e-09 M | IC50 [3, 7]: 4.37e-08 M | BAF3-KDR (MIN IL3 Alamar Blue pIC50) [4]: 5.79 | BAF3-FLT3 (MIN IL3 Alamar Blue pIC50) [5]: 5.22

COc1cc(OC)cc(N(CC(O)C(F)(F)F)c2ccc3ncc(-c4cnn(C)c4)cc3c2)c1 (single isomer, unassigned) [Compound 25]
IC50 [1, 6]: 5.89e-09 M | IC50 [2]: 6.03e-08 M | IC50 [3, 7]: 5.89e-07 M | BAF3-KDR (MIN IL3 Alamar Blue pIC50) [4]: <5 | BAF3-FLT3 (MIN IL3 Alamar Blue pIC50) [5]: <5

COc1cc(OC)cc(N(Cc2ncc[nH]2)c2ccc3ncc(-c4ccncc4)cc3c2)c1 [Compound 57]
IC50 [1, 6]: 1.05e-09 M | IC50 [2]: 4.47e-09 M | IC50 [3, 7]: 4.57e-07 M | BAF3-KDR (MIN IL3 Alamar Blue pIC50) [4]: <5 | BAF3-FLT3 (MIN IL3 Alamar Blue pIC50) [5]: <5

CNCCN(c1ccc2ncc(-c3cnn(C)c3)cc2c1)c1c(F)c(OC)cc(OC)c1F [Compound 43]
IC50 [1, 6]: 2.4e-09 M | IC50 [2]: 2.63e-09 M | IC50 [3, 7]: 1.48e-08 M | BAF3-KDR (MIN IL3 Alamar Blue pIC50) [4]: 6.51 | BAF3-FLT3 (MIN IL3 Alamar Blue pIC50) [5]: 5.24
